The record followed here is patent US7495002B2, “3-methyl-7-butinyl-xanthines, the preparation thereof and their use as pharmaceutical compositions” (Boehringer Ingelheim International GmbH, priority 2004, dated 2009).

Broadly, the IC50 is the point on the concentration scale where inhibition reaches its midpoint.

In one data set the target is T1, DPP-IV (Homo sapiens, UniProt P27487).
T1 construct: an extract of the human colon carcinoma cell line Caco-2 is used as the DPP IV source; endogenous in cells; host or cells: Caco-2 (human colon carcinoma), differentiated to induce DPP-IV expression; Nonidet-P40 solubilised extract
As to the kind of experiment: DPP-IV assay with extract of Caco-2 cells as DPP IV source, AFC substrate, fluorescence. The format is biochemical. The conditions noted are these: extract of human colon carcinoma cell line Caco-2; substrate 100 μM; 60 minutes at ambient temperature; read-out: DPP IV inhibition IC50. The protocol:
The differentiation of the cells in order to induce the DPP-IV expression was carried out in accordance with the description by Reiher et al. in an article entitled “Increased expression of intestinal cell line Caco-2”, which appeared in Proc. Natl. Acad. Sci. Vol. 90, pp. 5757-5761 (1993). The cell extract was obtained from cells solubilised in a buffer (10 mM Tris HCl, 0.15 M NaCl, 0.04 t.i.u. aprotinin, 0.5% Nonidet-P40, pH 8.0) by centrifugation at 35,000 g for 30 minutes at 4° C. (to remove cell debris).
The DPP-IV assay was carried out as follows:
50 μl of substrate solution (AFC; AFC is amido-4-trifluoromethylcoumarin), final concentration 100 μM, were placed in black microtitre plates. 20 μl of assay buffer (final concentrations 50 mM Tris HCl pH 7.8, 50 mM NaCl, 1% DMSO) was pipetted in. The reaction was started by the addition of 30 μl of solubilised Caco-2 protein (final concentration 0.14 μg of protein per well). The test substances under investigation were typically added prediluted to 20 μl, while the volume of assay buffer was then reduced accordingly. The reaction was carried out at ambient temperature, the incubation period was 60 minutes. Then the fluorescence was measured in a Victor 1420 Multilabel Counter, with the excitation wavelength at 405 nm and the emission wavelength at 535 nm. Dummy values (corresponding to 0% activity) were obtained in mixtures with no Caco-2 protein (volume replaced by assay buffer), control values (corresponding to 100% activity) were obtained in mixtures without any added substance. The potency of the test substances in question, expressed as IC50 values, were calculated from dosage/activity curves consisting of 11 measured points in each case.

Another data set relates to rats. The data set can be described thus: Tolerability in rats after oral administration. Type of data set: in vivo. The note with it: oral administration of 10 mg/kg.

Structures are written as SMILES.

T1 sequence (P27487 whole entry): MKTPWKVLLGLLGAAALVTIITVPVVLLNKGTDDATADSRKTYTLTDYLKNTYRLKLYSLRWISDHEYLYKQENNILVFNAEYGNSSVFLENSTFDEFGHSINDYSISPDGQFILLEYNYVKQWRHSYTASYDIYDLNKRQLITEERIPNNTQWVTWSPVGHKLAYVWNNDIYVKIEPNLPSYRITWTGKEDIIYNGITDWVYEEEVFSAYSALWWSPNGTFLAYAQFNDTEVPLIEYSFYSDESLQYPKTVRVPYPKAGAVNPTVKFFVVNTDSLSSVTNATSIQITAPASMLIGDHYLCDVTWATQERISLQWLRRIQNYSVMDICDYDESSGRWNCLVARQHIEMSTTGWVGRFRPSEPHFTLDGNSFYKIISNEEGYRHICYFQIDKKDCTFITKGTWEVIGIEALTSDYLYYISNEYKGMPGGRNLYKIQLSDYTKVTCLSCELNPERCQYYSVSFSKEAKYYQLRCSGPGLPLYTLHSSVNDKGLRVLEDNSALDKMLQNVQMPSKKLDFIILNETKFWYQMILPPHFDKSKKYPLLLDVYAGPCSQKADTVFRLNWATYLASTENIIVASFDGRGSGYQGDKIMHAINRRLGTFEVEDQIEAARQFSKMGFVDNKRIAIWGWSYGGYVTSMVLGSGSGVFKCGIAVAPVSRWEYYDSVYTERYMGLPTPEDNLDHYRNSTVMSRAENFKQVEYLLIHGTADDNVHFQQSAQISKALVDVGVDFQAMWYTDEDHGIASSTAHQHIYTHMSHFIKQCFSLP

For the compound `CC#CCn1c(N(C)CCN)nc2c1c(=O)n(Cc1nc(C)c3ccccc3n1)c(=O)n2C` [1(1), 1-[(4-methyl-quinazolin-2-yl)methyl]-3-methyl-7-(2-butyn-1-yl)-8-[(2-amino-ethyl)-methylamino]-xanthine], the IC50 on DPP-IV is 2 nM. Take `CC#CCn1c(N(C)C[C@H](C)N)nc2c1c(=O)n(Cc1nc(C)c3ccccc3n1)c(=O)n2C` [Example 2(4), 1-[(4-methyl-quinazolin-2-yl)methyl]-3-methyl-7-(2-butyn-1-yl)-8-[(S)-(2-amino-propyl)-methylamino]-xanthine]: at DPP-IV, the 50% inhibitory concentration (IC50) was 2 nM. In addition, the toxic side effects result with rats is recorded as “no toxic side effects could be detected”. In the case of `CC#CCn1c(N(C)C[C@H](C)N)nc2c1c(=O)n(Cc1ncc3ccccc3c1C#N)c(=O)n2C` [2(12), 1-[(4-cyano-isoquinolin-3-yl)methyl]-3-methyl-7-(2-butyn-1-yl)-8-[(S)-(2-amino-propyl)-methylamino]-xanthine], the IC50 on DPP-IV came to 2 nM.

On to `CC#CCn1c(N(C)C[C@H](C)N)nc2c1c(=O)n(Cc1ncccc1C#N)c(=O)n2C` [2(11), 1-[(3-cyano-pyridin-2-yl)methyl]-3-methyl-7-(2-butyn-1-yl)-8-[(S)-(2-amino-propyl)-methylamino]-xanthine], for which the concentration for half-maximal inhibition (IC50) at DPP-IV amounted to 3 nM. With `CC#CCn1c(N(C)C[C@H](C)N)nc2c1c(=O)n(Cc1ccc3nccnc3c1)c(=O)n2C` [2(10), 1-[(quinoxalin-6-yl)methyl]-3-methyl-7-(2-butyn-1-yl)-8-[(S)-(2-amino-propyl)-methylamino]-xanthine], on DPP-IV, the 50% inhibitory concentration (IC50) came to 3 nM.

Consider `CC#CCn1c(N(C)CC(C)(C)N)nc2c1c(=O)n(Cc1nc(C)c3ccccc3n1)c(=O)n2C` [2(1), 1-[(4-methyl-quinazolin-2-yl)methyl]-3-methyl-7-(2-butyn-1-yl)-8-[(2-amino-2-methyl-propyl)-methylamino]-xanthine], for which, on DPP-IV, the IC50 is 3 nM.
